# According to patent US20020025303A1, “COSMETIC AND/OR DERMATOLOGICAL COMPOSITION CONTAINING A DERIVATIVE OF METHYLATED SILANOL AND A DERIVATIVE OF HYDROLYSED PLANT PROTEIN” (priority 1997, published 2002):
# Tested on: normal human fibroblasts (NHDF 784)
# Experiment: Synthesis of collagen by human fibroblast cultures (radiolabelled proline incorporation)
# Type: cell-based
# Details: 72 h incubation, 1/40 dilutions of stock preparations, vitamin C 20 μg/ml, FIG. 4
# Protocol: The effect of a composition of the present invention (comprising two anti-glycosylation agents with magnesium ascorbyl phosphate) on the stimulation of the synthesis of collagen and the limitation of the formation of irreversible cross linkages between the collagen fibrils, were evaluated in vitro on human fibroblast cells. […] Glucose was tested in a final concentration of 0.1 percent, which is equivalent to doubling the quantity of 'cold' glucose of the medium. […] They contained free radioactivity and radioactivity incorporated in the soluble cellular and extracellular proteins. […] The proteins of the soluble fraction were then precipitated by 0.3 volume of 10 percent w/v trichloroacetic acid (TCA), and then washed twice with 3 percent TCA (removal of free radioactivity). […] Aliquots were taken to count the incorporated radioactivity in the proteins and a final precipitation was carried out with TCA to separate the material digested by collagenase (collagenic origin) from the collagenase-insensitive material. The incorporated radioactivity was counted by liquid scintillation after cumulation of the soluble/insoluble protein fractions, in an LKB 1211 Rackbeta counter.
row,Compound,synthesis of collagen (quantity of radiolabelled proline in the neosynthesized collagen)
1,O=C1O[C@H]([C@@H](O)CO)C([O-])=C1OP(=O)([O-])[O-].O=C1O[C@H]([C@@H](O)CO)C([O-])=C1OP(=O)([O-])[O-].[Mg+2].[Mg+2].[Mg+2] [magnesium ascorbyl phosphate],significantly increased
2,O=C1O[C@H]([C@@H](O)CO)C(O)=C1O [vitamin C],significantly increased
